Experimental data: ChEMBL document CHEMBL5365404, “Synthesis and biological evaluation of 2-(Tetrazol-5-yl)sulfonylacetamides as inhibitors of Mycobacterium tuberculosis and Mycobacterium marinum” (Bioorg Med Chem Lett, 2023)
In brackets after ≈: the same amount, converted by molar mass.

Columns and labels:
[1] = test system: Mycobacterium tuberculosis; assay: Antitubercular activity against Mycobacterium tuberculosis assessed as reduction in microbial growth by broth dilution method; assay type: functional
Mycobacterium marinum = assay: Antitubercular activity against Mycobacterium marinum assessed as reduction in microbial growth by broth dilution method; assay type: functional
[2] = Lipophilicity, log D of the compound at pH 7.4; assay type: physicochemical; conditions: buffer
[3] = Solubility of the compound at pH 2.0; assay type: physicochemical; conditions: buffer
[4] = Solubility of the compound at pH 6.5; assay type: physicochemical; conditions: buffer
[5] = Half life in mouse liver microsomes; assay type: ADME, Microsome
[6] = Intrinsic clearance in mouse liver microsomes; assay type: ADME, Microsome; conditions: read-out: CLH

Row | SMILES | MIC90 [1] | MIC90 (Mycobacterium marinum) | other results
1 | CN(C(=O)CSc1nnnn1-c1ccccc1)c1ccccc1 | > 100 µg/mL | > 100 µg/mL | 
2 | CCN(CC)C(=O)CS(=O)(=O)c1nnnn1C | 10 µg/mL | 100 µg/mL | 
3 | O=C(CS(=O)(=O)c1nnc2ncccn12)N1CCN(c2ccccc2)CC1 | > 100 µg/mL | > 100 µg/mL | 
4 | CO[C@H]1/C=C/O[C@@]2(C)Oc3c(C)c(O)c4c(O)c(c(/C=N/N5CCN(C)CC5)c(O)c4c3C2=O)NC(=O)/C(C)=C\C=C\[C@H](C)[C@H](O)[C@@H](C)[C@@H](O)[C@@H](C)[C@H](OC(C)=O)[C@@H]1C [RIFAMPIN] | 0.06 µg/mL | 0.2 µg/mL | 
5 | CC1CCCCN1C(=O)CS(=O)(=O)c1nnnn1C (centres undefined) | 3.13 µg/mL | 25 µg/mL | 
6 | O=C(CS(=O)(=O)c1nnc2ncccn12)N1CCCCC1 | > 100 µg/mL | > 100 µg/mL | 
7 | O=C(CS(=O)(=O)c1nnnn1-c1ccccc1)N1CCCCC1 | 10 µg/mL | 100 µg/mL | 
8 | CC1CCN(C(=O)CS(=O)(=O)c2nc(-c3ccc(Cl)cc3)n[nH]2)CC1 | > 100 µg/mL | > 100 µg/mL | 
9 | CC1CCN(C(=O)CSc2nnnn2-c2ccccc2)CC1 | > 50 µg/mL | > 100 µg/mL | 
10 | CCN(CC)C(=O)CS(=O)(=O)c1nnnn1-c1ccccc1 | 20 µg/mL | > 100 µg/mL | 
11 | CN(C(=O)CS(=O)(=O)c1nnnn1C)c1ccccc1 | 2.5 µg/mL | 100 µg/mL | 
12 | O=C(CS(=O)(=O)c1nnnn1-c1ccccc1)N1CCCC1 | 20 µg/mL | > 100 µg/mL | 
13 | Cn1nnnc1S(=O)(=O)CC(=O)N1CCCCCC1 | 1.25 µg/mL | 100 µg/mL | 
14 | CN(C(=O)CS(=O)(=O)c1nnnn1-c1ccccc1)c1ccccc1 | 10 µg/mL | 50 µg/mL | 
15 | CN(C(=O)C[S+]([O-])c1nnnn1-c1ccccc1)c1ccccc1 (centres undefined) | 50 µg/mL | 100 µg/mL | 
16 | Cn1nnnc1S(=O)(=O)CC(=O)N1CCCCC1 | 1.56 µg/mL | 12.5 µg/mL | logD [2]: 1.6; solubility [3]: > 100 mg/mL; solubility [4]: > 100 mg/mL; half-life [5]: 2.93 h; microsomal CLint [6]: 10 µL/min/mg

Row | SMILES | MIC90 [1] | MIC90 (Mycobacterium marinum) | other results
17 | CC1CCN(C(=O)C[S+]([O-])c2nnnn2-c2ccccc2)CC1 (centres undefined) | 25 µg/mL | 100 µg/mL | 
18 | CN(C(=O)CS(=O)(=O)c1nc(O)nn1C)c1ccccc1 | > 100 µg/mL | > 100 µg/mL | 
19 | O=C(CSc1nnnn1-c1ccccc1)N1CCCC1 | 50 µg/mL | 100 µg/mL | 
20 | Cn1nnnc1S(=O)(=O)CC(=O)N1CCN(c2ccccc2)CC1 | 1.25 µg/mL | 10 µg/mL | logD [2]: 4.8; solubility [3]: 50 mg/mL (≈ 143 mM); solubility [4]: 25 mg/mL (≈ 71.3 mM); half-life [5]: 0.333 h; microsomal CLint [6]: 85 µL/min/mg
21 | Cn1nnnc1S(=O)(=O)CC(=O)N1CCCC1 | 6.25 µg/mL | 12.5 µg/mL | 
22 | CCC1CCCCN1C(=O)CS(=O)(=O)c1nnnn1C (centres undefined) | 2.5 µg/mL | 100 µg/mL | 
23 | Cn1nnnc1SCC(=O)N1CCCC1 | > 100 µg/mL | > 100 µg/mL | 
24 | CC1CCCCN1C(=O)CS(=O)(=O)c1nnnn1-c1ccccc1 (centres undefined) | 12.5 µg/mL | 100 µg/mL | 
25 | Cn1nnnc1SCC(=O)N1CCCCC1 | > 100 µg/mL | > 100 µg/mL | 
26 | COc1cccc(-c2n[nH]c(S(=O)(=O)CC(=O)N3CCC(C)CC3)n2)c1 | > 100 µg/mL | > 100 µg/mL | 
27 | O=C(CS(=O)(=O)c1nnnn1-c1ccccc1)N1CCN(c2ccccc2)CC1 | 10 µg/mL | 100 µg/mL | 
28 | O=C(CS(=O)(=O)c1nnnn1-c1ccccc1)NC1CCCCC1 | 100 µg/mL | 100 µg/mL | 
29 | CC1CCCN(C(=O)CS(=O)(=O)c2nnnn2C)C1 (centres undefined) | 6.25 µg/mL | 25 µg/mL | 
30 | Cn1nnnc1S(=O)(=O)CC(=O)NC1CCCCC1 | 6.25 µg/mL | 12.5 µg/mL | 
31 | CC1CCN(C(=O)CS(=O)(=O)c2nnnn2C)CC1 | 1.56 µg/mL | 12.5 µg/mL | 
32 | CC1CCN(C(=O)CS(=O)(=O)c2nnnn2-c2ccccc2)CC1 | 12.5 µg/mL | 100 µg/mL | 
